{"source": "paper PMC8954547", "about": "“Nonpeptidic Z360-Analogs Tagged with Trivalent Radiometals as Anti-CCK2R Cancer Theranostic Agents: A Preclinical Study” (Pharmaceutics, 2022)", "key": {"[1]": {"assay": "Radioligand stability in mice (radio-HPLC of blood and urine)", "format": "in vivo", "conditions": "mean ± SD", "experimental": "The formation of radiometabolites which can be detected in the blood was tested in blood samples collected 5 min post-injection (pi) of each of the radioligands [^67Ga]Ga/[^111In]In/[^177Lu]Lu-GAS1/3 and [^67Ga]Ga/[^111In]In-GAS2. For this study, in-house male Swiss albino mice (body weight: 30 ± 5 g, provided by the NCSR “Demokritos” Animal House) were used in groups of three. The animals received, through the tail vein, a 100-μL bolus containing each radioligand tested (2.5–3 nmol of the total conjugate in vehicle: saline/EtOH 9/1 v/v, corresponding to: up to 11 MBq for In-111, up to 13 MBq for Ga-67 and up to 74 MBq for Lu-177). Mice were euthanized, and blood was collected directly from the heart using a prechilled penicillin syringe and transferred in a prechilled EDTA-containing Eppendorf Protein LoBind® tube on ice (40 µL, 50 mM Na2EDTA solution). After centrifugation (10 min, 2000× g/4 °C, in a Hettich, Universal 320R, centrifuge), the blood plasma was collected, mixed with chilled MeCN in a 1/1 v/v ratio and centrifuged again (10 min, 15,000× g/4 °C). Supernatants were collected and concentrated to a small volume (≈50–100 μL) under a gentle N2-flux at 40 °C. They were then diluted with physiological saline (≈400 μL) and filtered through a Millex GV filter (0.22 μm, 13 mm Ø, Millipore, Milford, CT, USA). Aliquots of the filtrate were analyzed by radio-RP-HPLC using a Waters Symmetry Shield RP18 cartridge column (5 μm, 3.9 mm × 20 mm) eluted at a flow rate of 1.0 mL/min with the following gradient: 100% A/0% B to 55% A/45% B in 45 min; A = 0.1% aqueous TFA (v/v) and B = MeCN (system 2). The elution time (tR) of each parent radioligand was determined by coinjection of blood samples with an aliquot of the labeling solution on the HPLC column. Results were calculated as the average percentage of intact radioligand ± SD derived from three independent experiments.\nFollowing the same injection protocol, radioligands were administered in additional groups of mice, but this time animals were euthanized 30 min pi. The urine was immediately collected from the bladder using a prechilled syringe and transferred as before in a prechilled EDTA-containing Eppendorf Protein LoBind® centrifuge tube on ice (40 µL, 50 mM Na2EDTA solution) and 0.1 mL of physiological saline. Urine proteins were precipitated by adding chilled MeCN in a 1/1 v/v ratio followed by a 10 min centrifugation step (15,000× g/4 °C). The supernatant was then collected and treated following the blood sample workup procedure. Aliquots of the Millex-GV filtrate (containing >90% of total urine activity) were analyzed by radio-HPLC, adopting the aforementioned conditions. Results were calculated as the average percentage of intact radioligand ± SD derived from three independent experiments."}, "[2]": {"system": "SCID mice bearing twin HEK293-CCK2i4svR and wtHEK293 tumors", "assay": "Biodistribution in SCID mice bearing twin HEK293-CCK2i4svR and wtHEK293 xenografts", "format": "in vivo", "procedure,_shortened": "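Uptake is expressed as %IA/g (mean ± SD, n = 4) from gamma counting of blood, organs and tumours collected at set times: 1, 4 and 24 h pi for ^67Ga, 4 and 24 h for ^111In (±gelofusine), 4–96 h for ^177Lu. Radioligands were given iv at 7–40 pmol to SCID mice bearing twin CCK2i4svR-transfected and wild-type HEK293 xenografts.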"}, "[3]": {"system": "HEK293-CCK2i4svR and wtHEK293 xenografts", "assay": "SPECT/CT of HEK293-CCK2i4svR and wtHEK293 xenografts", "format": "in vivo, mice", "conditions": "4 h and 24 h pi", "experimental": "For SPECT/CT imaging, six mice bearing twin HEK293-CCK2i4svR and wtHEK293 tumors were injected in the tail vein with a bolus containing [^111In]In-GAS1/2/3 (100 μL, 9–12 MBq associated with 3 nmol total injected analog in-vehicle: saline/EtOH 9/1 v/v). Mice were euthanized at 4 h and 24 h pi. Tomographic SPECT/CT imaging was performed with the y-CUBE/x-CUBE systems (Molecubes, Belgium). The SPECT system is based on monolithic NaI detectors attached to SiPMs, with a 0.6 mm intrinsic resolution. The CT system is based on a structured CMOS detector of CsI with pixels of 75 µm and operates between 35–80 kVp, 10–500 µA tube current, with a 33 µm fixed focal spot size. SPECT scans were acquired 4 h pi and 24 h pi, with a 40–50 min duration protocol based on the injected activity, and each SPECT scan was succeeded by a CT scan, following General-Purpose protocol under 50 kVp, for co-registration purposes. SPECT images were reconstructed using the MLEM reconstruction method with a 250 µm voxel size and 500 iterations. CT images were reconstructed using the ISRA reconstruction method with a 100 µm voxel size.\nImages were exported and post-processed on VivoQuant software, version 4.0 (Invicro, Boston). A smoothing median filter (0.6 mm, spherical window) was applied to the images, and the bladder was removed for consistency purposes. Normalization of images was performed (i.e., all images having the same color scale range values) to achieve a direct visual comparison between the different groups."}, "[4]": {"conditions": "4 h + Gelo (Gelofusine-treated mice)"}, "[5]": {"conditions": "24 h + Gelo (Gelofusine-treated mice)"}}, "data": [{"smiles": "CC(C)(C)C(=O)CN1C(=O)[C@H](NC(=O)Nc2cccc(C(=O)NCCOCCOCCOCCNC(=O)[C@H](CCC(=O)O)NC(=O)CN3CCN(CC(=O)[O-])CCN(CC(=O)[O-])CCN(CC(=O)[O-])CC3)c2)CN(C2CCCCC2)c2ccccc21.[111In+3]", "note": "(stereo in doubt) [[^111In]In-GAS1]", "values": [{"measurement": "Intact radioligand in blood", "setting": "[1]; mice blood collected 5 min pi", "result": "84.6 ± 2.4 (3) %"}, {"measurement": "Intact radioligand in urine", "setting": "[1]; mice urine collected 30 min pi", "result": "85.2 ± 5.2 (3) %"}, {"measurement": "Biodistribution, Blood", "setting": "[2]; [4]", "result": "2.75 ± 0.48", "unit": "%IA/g"}, {"measurement": "Biodistribution, CCK2i4svR(+) Tumor", "setting": "[2]; [4]", "result": "19.17 ± 2.06", "unit": "%IA/g"}, {"measurement": "Biodistribution, CCK2i4svR(-) Tumor", "setting": "[2]; [4]", "result": "0.86 ± 0.15", "unit": "%IA/g"}, {"measurement": "Biodistribution, Femur", "setting": "[2]; [4]", "result": "0.65 ± 0.15", "unit": "%IA/g"}, {"measurement": "Biodistribution, Heart", "setting": "[2]; [4]", "result": "0.92 ± 0.16", "unit": "%IA/g"}, {"measurement": "Biodistribution, Intestines", "setting": "[2]; [4]", "result": "1.87 ± 0.08", "unit": "%IA/g"}, {"measurement": "Biodistribution, Kidneys", "setting": "[2]; [4]", "result": "5.93 ± 0.56", "unit": "%IA/g"}, {"measurement": "Biodistribution, Liver", "setting": "[2]; [4]", "result": "6.34 ± 0.86", "unit": "%IA/g"}, {"measurement": "Biodistribution, Muscle", "setting": "[2]; [4]", "result": "0.28 ± 0.06", "unit": "%IA/g"}, {"measurement": "Biodistribution, Pancreas", "setting": "[2]; [4]", "result": "1.47 ± 0.26", "unit": "%IA/g"}, {"measurement": "Biodistribution, Spleen", "setting": "[2]; [4]", "result": "1.13 ± 0.28", "unit": "%IA/g"}, {"measurement": "Biodistribution, Stomach", "setting": "[2]; [4]", "result": "0.77 ± 0.14", "unit": "%IA/g"}, {"measurement": "Biodistribution, Blood", "setting": "[2]; 4 h pi", "result": "3.51 ± 0.56", "unit": "%IA/g"}, {"measurement": "Biodistribution, CCK2i4svR(+) Tumor", "setting": "[2]; 4 h pi", "result": "17.79 ± 1.73", "unit": "%IA/g"}, {"measurement": "Biodistribution, CCK2i4svR(-) Tumor", "setting": "[2]; 4 h pi", "result": "0.73 ± 0.05", "unit": "%IA/g"}, {"measurement": "Biodistribution, Femur", "setting": "[2]; 4 h pi", "result": "0.77 ± 0.13", "unit": "%IA/g"}, {"measurement": "Biodistribution, Heart", "setting": "[2]; 4 h pi", "result": "1.10 ± 0.19", "unit": "%IA/g"}, {"measurement": "Biodistribution, Intestines", "setting": "[2]; 4 h pi", "result": "3.37 ± 0.89", "unit": "%IA/g"}, {"measurement": "Biodistribution, Kidneys", "setting": "[2]; 4 h pi", "result": "6.06 ± 1.24", "unit": "%IA/g"}, {"measurement": "Biodistribution, Liver", "setting": "[2]; 4 h pi", "result": "7.69 ± 1.00", "unit": "%IA/g"}, {"measurement": "Biodistribution, Lungs", "setting": "[2]; 4 h pi", "result": "2.23 ± 0.39", "unit": "%IA/g"}, {"measurement": "Biodistribution, Muscle", "setting": "[2]; 4 h pi", "result": "0.26 ± 0.04", "unit": "%IA/g"}, {"measurement": "Biodistribution, Pancreas", "setting": "[2]; 4 h pi", "result": "1.49 ± 0.19", "unit": "%IA/g"}, {"measurement": "Biodistribution, Spleen", "setting": "[2]; 4 h pi", "result": "1.56 ± 0.22", "unit": "%IA/g"}, {"measurement": "Biodistribution, Stomach", "setting": "[2]; 4 h pi", "result": "0.98 ± 0.21", "unit": "%IA/g"}, {"measurement": "Biodistribution, Blood", "setting": "[2]; [5]", "result": "0.07 ± 0.01", "unit": "%IA/g"}, {"measurement": "Biodistribution, CCK2i4svR(+) Tumor", "setting": "[2]; [5]", "result": "4.51 ± 0.55", "unit": "%IA/g"}, {"measurement": "Biodistribution, CCK2i4svR(-) Tumor", "setting": "[2]; [5]", "result": "0.23 ± 0.04", "unit": "%IA/g"}, {"measurement": "Biodistribution, Femur", "setting": "[2]; [5]", "result": "0.16 ± 0.01", "unit": "%IA/g"}, {"measurement": "Biodistribution, Heart", "setting": "[2]; [5]", "result": "0.15 ± 0.02", "unit": "%IA/g"}, {"measurement": "Biodistribution, Intestines", "setting": "[2]; [5]", "result": "0.49 ± 0.13", "unit": "%IA/g"}, {"measurement": "Biodistribution, Kidneys", "setting": "[2]; [5]", "result": "1.69 ± 0.13", "unit": "%IA/g"}, {"measurement": "Biodistribution, Liver", "setting": "[2]; [5]", "result": "1.30 ± 0.15", "unit": "%IA/g"}, {"measurement": "Biodistribution, Lungs", "setting": "[2]; [5]", "result": "0.39 ± 0.03", "unit": "%IA/g"}, {"measurement": "Biodistribution, Muscle", "setting": "[2]; [5]", "result": "0.06± 0.01", "unit": "%IA/g"}, {"measurement": "Biodistribution, Pancreas", "setting": "[2]; [5]", "result": "0.14 ± 0.01", "unit": "%IA/g"}, {"measurement": "Biodistribution, Spleen", "setting": "[2]; [5]", "result": "0.48 ± 0.08", "unit": "%IA/g"}, {"measurement": "Biodistribution, Stomach", "setting": "[2]; [5]", "result": "0.25 ± 0.04", "unit": "%IA/g"}, {"measurement": "Biodistribution, Blood", "setting": "[2]; 24 h pi", "result": "0.08 ± 0.01", "unit": "%IA/g"}, {"measurement": "Biodistribution, CCK2i4svR(+) Tumor", "setting": "[2]; 24 h pi", "result": "5.40 ± 1.13", "unit": "%IA/g"}, {"measurement": "Biodistribution, CCK2i4svR(-) Tumor", "setting": "[2]; 24 h pi", "result": "0.27 ± 0.10", "unit": "%IA/g"}, {"measurement": "Biodistribution, Femur", "setting": "[2]; 24 h pi", "result": "0.16 ± 0.03", "unit": "%IA/g"}, {"measurement": "Biodistribution, Heart", "setting": "[2]; 24 h pi", "result": "0.15 ± 0.03", "unit": "%IA/g"}, {"measurement": "Biodistribution, Intestines", "setting": "[2]; 24 h pi", "result": "0.59 ± 0.11", "unit": "%IA/g"}, {"measurement": "Biodistribution, Kidneys", "setting": "[2]; 24 h pi", "result": "1.84 ± 0.38", "unit": "%IA/g"}, {"measurement": "Biodistribution, Liver", "setting": "[2]; 24 h pi", "result": "2.27 ± 0.30", "unit": "%IA/g"}, {"measurement": "Biodistribution, Lungs", "setting": "[2]; 24 h pi", "result": "0.36 ± 0.05", "unit": "%IA/g"}, {"measurement": "Biodistribution, Muscle", "setting": "[2]; 24 h pi", "result": "0.06± 0.00", "unit": "%IA/g"}, {"measurement": "Biodistribution, Pancreas", "setting": "[2]; 24 h pi", "result": "0.18 ± 0.03", "unit": "%IA/g"}, {"measurement": "Biodistribution, Spleen", "setting": "[2]; 24 h pi", "result": "0.64 ± 0.12", "unit": "%IA/g"}, {"measurement": "Biodistribution, Stomach", "setting": "[2]; 24 h pi", "result": "0.21 ± 0.05", "unit": "%IA/g"}, {"measurement": "SPECT/CT uptake in CCK2i4svR expressing tumors", "setting": "[3]", "result": "Intense uptake"}, {"measurement": "SPECT/CT uptake in wtHEK293 tumors devoid of CCK2i4svR expression", "setting": "[3]", "result": "no uptake is evident"}]}]}
